Test results as given in ChEMBL document CHEMBL1201862, “PubChem BioAssay data set” (2004).
The source made the active and inactive calls.

What was measured:
[1] = molecular target: Voltage-dependent T-type calcium channel subunit alpha-1H (Homo sapiens, UniProt O95180); type: functional;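 note: channel activity triggered by adding a high calcium stimulation buffer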
[2] = HepG2 cell cytotoxicity, dose response, cytotoxicity control for Shn3 inhibitor project, CellTiter-Glo, cherry-picked (AID 624134); type: functional, cell-based
[3] = cytotoxicity in HEK-293T cells, dose response, cytotoxicity control for TCR NF-kB inhibitor project, luminescence, T-cell screen hits (AID 489026); type: functional, cell-based;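 note: cells exposed to compound about 14 hours before the viability readout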
[4] = control 3'UTR Renilla luciferase suppression, dose response, counter-screen for Shn3 inhibitor project, cell-based, Clone20-Shn3RL, cherry-picked (AID 624133); type: functional
[5] = Shn3 3'UTR reporter inhibitors, dose response, cell-based, Clone20 osteoblasts, firefly luciferase, cherry-picked (AID 624132); type: functional;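 note: firefly luciferase luminescence from reporter carrying the Shn3 3'UTR in osteoblasts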
INS1 = test: beta cell apoptosis inhibitors, cytokine rescue, dose response, luminescence, retest (AID 449756); type: functional, cell-based; settings: Rattus norvegicus;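 note: cell death triggered by IL-1 beta plus TNF-alpha plus IFN-gamma mixture; protective hits raise ATP signal compared with cytokine alone wells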
Streptokinase A = molecular target: T1, Streptokinase A (Streptococcus pyogenes serotype M1, UniProt P10520); test: S. pyogenes streptokinase expression inhibitors, potency, dose response, plasminogen activation absorbance, OD405 (AID 1914); type: functional, Streptococcus pyogenes M1 GAS;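 note: secreted streptokinase activity via plasminogen activation per viability signal from cell pellet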
T1 sequence (P10520 whole entry): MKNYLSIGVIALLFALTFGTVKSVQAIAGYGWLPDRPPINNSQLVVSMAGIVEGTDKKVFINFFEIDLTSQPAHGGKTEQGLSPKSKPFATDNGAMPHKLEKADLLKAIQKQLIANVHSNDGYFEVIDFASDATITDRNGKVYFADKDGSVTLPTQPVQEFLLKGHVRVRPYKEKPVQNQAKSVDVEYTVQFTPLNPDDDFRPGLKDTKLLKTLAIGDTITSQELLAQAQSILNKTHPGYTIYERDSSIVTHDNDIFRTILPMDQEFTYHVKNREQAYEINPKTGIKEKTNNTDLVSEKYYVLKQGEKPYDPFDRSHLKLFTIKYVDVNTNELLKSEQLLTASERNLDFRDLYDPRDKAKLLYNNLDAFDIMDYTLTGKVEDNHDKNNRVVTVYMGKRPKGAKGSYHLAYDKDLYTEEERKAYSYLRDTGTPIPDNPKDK

[6] = THP-1 cell cytotoxicity, dose response, cytotoxicity control for Vif-APOBEC3G degradation inhibitor project, THP-1 cells (AID 1117359); type: functional; settings: Human immunodeficiency virus 1, THP-1
Streptococcus = test: Group A Streptococcus viability loss, dose response, counter-screen for streptokinase expression inhibitor project, luminescence, BacTiterGlo (AID 1915); type: functional, organism-based;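 note: potency for reduction of bacterial viability or growth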
[7] = test system: Streptococcus sp. 'group A'; test: growth inhibition of control SK(-) GAS strain, dose response, counter-screen for streptokinase expression inhibitor project, luminescence, kanamycin, BacTiterGlo, confirmation (AID 1900); type: functional, organism-based
[8] = molecular target: T2, DNA repair protein RAD52 homolog (Homo sapiens, UniProt P43351); type: functional, biochemical
T2 sequence (P43351 whole entry): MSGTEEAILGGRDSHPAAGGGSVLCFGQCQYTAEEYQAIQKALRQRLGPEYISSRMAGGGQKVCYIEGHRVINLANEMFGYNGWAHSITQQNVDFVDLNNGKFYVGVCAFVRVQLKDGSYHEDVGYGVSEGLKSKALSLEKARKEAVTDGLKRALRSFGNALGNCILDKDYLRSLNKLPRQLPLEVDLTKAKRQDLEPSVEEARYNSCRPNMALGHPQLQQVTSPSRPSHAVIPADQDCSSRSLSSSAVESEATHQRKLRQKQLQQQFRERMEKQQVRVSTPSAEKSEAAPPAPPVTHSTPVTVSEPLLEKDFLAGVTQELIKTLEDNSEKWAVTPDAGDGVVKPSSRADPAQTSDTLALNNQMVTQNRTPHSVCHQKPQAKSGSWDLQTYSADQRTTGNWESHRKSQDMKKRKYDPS

[9] = intracellular Trypanosoma cruzi inhibitors in host cells – cell-based, plate reader, cherry-pick samples, set 3, dose response (AID 651818); type: functional;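 note: compounds incubated with infected cells for about four days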
[10] = inhibitors of HIV Env-driven cell fusion, dose response, cherry-pick (AID 652057); type: functional, cell-based
[11] = inhibitors of clade B AD8 Env fusion, dose response, cell-based, cherry-pick (AID 652062); type: functional;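 note: luciferase signal from cell-cell fusion driven by HIV-1 clade B AD8 Env; potency is for inhibitors of fusion seen as a drop in luminescence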
[12] = ZM109 Env clade C HIV-1 fusion inhibitors, dose response, HeLa effector, CEM target cells, luciferase, cherry-pick (AID 652058); type: functional, cell-based
Cytochrome P450 3A4 = Cytochrome P450 3A4 (Homo sapiens, UniProt P08684); settings: Potency;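 note: confirmatory qHTS run detecting inhibitors and substrates of CYP3A4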
Cytochrome P450 3A4, sequence (P08684 whole entry): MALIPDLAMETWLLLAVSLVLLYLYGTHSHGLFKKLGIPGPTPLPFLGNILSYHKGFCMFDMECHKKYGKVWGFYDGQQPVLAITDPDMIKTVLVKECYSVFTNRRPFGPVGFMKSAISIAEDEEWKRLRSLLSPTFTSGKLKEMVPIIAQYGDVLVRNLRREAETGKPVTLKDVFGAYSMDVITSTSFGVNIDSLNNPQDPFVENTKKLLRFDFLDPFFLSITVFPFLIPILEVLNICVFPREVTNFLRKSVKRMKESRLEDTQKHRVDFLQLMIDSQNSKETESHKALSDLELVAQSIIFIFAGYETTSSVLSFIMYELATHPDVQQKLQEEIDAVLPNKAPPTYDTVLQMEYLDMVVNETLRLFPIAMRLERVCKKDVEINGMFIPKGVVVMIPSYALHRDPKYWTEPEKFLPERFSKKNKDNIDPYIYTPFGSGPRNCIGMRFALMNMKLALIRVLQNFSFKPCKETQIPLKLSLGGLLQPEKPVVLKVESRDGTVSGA

Voltage-dependent T-type calcium channel subunit alpha-1H, sequence (O95180 whole entry): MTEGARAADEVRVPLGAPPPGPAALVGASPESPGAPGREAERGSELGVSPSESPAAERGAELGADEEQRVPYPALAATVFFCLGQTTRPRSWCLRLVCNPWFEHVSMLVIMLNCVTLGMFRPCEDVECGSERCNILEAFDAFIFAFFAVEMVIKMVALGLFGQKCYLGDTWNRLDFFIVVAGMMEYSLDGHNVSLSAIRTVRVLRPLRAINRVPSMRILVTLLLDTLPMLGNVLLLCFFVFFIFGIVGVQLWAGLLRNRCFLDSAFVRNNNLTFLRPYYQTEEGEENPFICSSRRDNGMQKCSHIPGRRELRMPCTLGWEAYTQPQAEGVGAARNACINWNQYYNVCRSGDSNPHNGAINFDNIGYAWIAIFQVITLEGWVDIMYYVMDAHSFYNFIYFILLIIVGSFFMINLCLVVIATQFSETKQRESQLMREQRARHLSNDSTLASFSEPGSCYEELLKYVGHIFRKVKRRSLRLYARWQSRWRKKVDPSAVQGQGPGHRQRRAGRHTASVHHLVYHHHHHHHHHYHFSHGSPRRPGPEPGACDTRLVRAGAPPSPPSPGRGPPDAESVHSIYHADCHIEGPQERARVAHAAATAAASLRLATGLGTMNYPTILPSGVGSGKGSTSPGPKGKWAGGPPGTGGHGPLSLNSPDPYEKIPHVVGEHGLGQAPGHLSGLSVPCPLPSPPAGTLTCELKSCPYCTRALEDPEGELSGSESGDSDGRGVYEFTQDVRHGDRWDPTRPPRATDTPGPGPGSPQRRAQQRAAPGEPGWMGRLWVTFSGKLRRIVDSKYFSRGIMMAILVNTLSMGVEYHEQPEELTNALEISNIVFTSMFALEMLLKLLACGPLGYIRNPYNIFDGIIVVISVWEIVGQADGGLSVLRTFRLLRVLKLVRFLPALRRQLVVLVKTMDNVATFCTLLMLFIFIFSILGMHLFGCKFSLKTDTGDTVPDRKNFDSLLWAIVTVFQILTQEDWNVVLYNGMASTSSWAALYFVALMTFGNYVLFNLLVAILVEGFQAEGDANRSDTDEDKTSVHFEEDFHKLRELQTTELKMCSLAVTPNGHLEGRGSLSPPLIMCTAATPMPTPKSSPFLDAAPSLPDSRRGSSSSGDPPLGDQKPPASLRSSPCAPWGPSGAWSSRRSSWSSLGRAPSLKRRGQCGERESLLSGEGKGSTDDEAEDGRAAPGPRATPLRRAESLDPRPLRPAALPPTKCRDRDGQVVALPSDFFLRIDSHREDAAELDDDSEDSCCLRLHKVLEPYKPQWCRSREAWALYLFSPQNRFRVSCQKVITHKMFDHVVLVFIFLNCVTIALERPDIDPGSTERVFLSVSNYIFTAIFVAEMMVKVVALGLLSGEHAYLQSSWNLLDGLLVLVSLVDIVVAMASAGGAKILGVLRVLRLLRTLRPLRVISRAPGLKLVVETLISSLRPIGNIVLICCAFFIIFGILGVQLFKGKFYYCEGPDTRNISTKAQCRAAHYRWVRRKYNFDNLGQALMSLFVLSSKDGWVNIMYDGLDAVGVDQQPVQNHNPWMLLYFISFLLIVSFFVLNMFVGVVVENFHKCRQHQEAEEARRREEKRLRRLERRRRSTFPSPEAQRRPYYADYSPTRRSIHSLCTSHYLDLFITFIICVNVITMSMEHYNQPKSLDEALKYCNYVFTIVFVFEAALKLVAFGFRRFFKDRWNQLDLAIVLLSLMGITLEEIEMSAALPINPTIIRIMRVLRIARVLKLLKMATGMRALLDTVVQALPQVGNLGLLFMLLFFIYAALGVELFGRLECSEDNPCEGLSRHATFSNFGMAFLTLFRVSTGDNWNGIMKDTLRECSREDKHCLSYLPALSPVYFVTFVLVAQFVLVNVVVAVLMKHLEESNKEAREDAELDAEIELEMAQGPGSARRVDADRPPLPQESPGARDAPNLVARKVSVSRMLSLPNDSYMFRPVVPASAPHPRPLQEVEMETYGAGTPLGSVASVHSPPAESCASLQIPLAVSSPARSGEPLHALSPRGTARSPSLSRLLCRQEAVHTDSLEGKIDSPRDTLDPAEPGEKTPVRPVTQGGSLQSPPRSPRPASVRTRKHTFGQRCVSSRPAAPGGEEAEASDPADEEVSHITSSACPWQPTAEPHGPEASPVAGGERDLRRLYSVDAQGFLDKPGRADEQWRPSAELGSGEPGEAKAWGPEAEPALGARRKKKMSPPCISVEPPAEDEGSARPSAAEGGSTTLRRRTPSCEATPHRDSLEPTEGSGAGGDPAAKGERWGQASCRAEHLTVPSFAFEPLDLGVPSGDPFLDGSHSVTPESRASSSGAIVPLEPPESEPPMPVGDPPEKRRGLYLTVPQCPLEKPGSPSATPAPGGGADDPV

Cc1cc(C)n(CCOC(=O)C2C(C=C(Cl)Cl)C2(C)C)n1 (stereo not given)
EC50 [1]: 4.86 µM (active)

O=C(NNc1ccnc2cc(Cl)ccc12)C1CCCCC1
AC50 [2]: 0.409 µM (active)
IC50 [3]: > 80 µM (inactive)
AC50 [4]: 1.39 µM (active)
AC50 [5]: < 0.26 µM (active)
AC50 (INS1): 1.42 µM (active)

O=C(CN1CCN(C(=O)c2ccco2)CC1)Nc1ccc(Cl)c(C(F)(F)F)c1
EC50 [1]: 3.47 µM (active)

Cc1nn(-c2ccccc2)c2sc(C(=O)N3CCc4ccccc4C3)cc12
EC50 (Streptokinase A): > 150 µM (not active)
CC50 [6]: > 40 µM (active)
EC50 (Streptococcus): 14.6 µM (active)
EC50 [7]: 4.55 µM (active)

NCCCC[C@H]1CN=C(N)N1CCC12CC3CC(CC(C3)C1)C2
AC50 [8]: 23.3 µM (active)

C[C@@H]1CCCCO[C@@H](CN(C)Cc2ccc(Cl)c(Cl)c2)[C@@H](C)CN([C@H](C)CO)C(=O)c2cc(NC(=O)Nc3ccccc3)ccc2O1
AC50 [9]: 3.82 µM (active)

C[C@H]1CN([C@@H](C)CO)C(=O)Cc2cc(NC(=O)Cc3cn(C)c4ccccc34)ccc2O[C@@H]1CN(C)Cc1ccc(-c2ccccc2)cc1
AC50 [9]: 1.72 µM (active)

C[C@H](CO)N1C[C@H](C)[C@@H](CN(C)Cc2ccc(C(F)(F)F)cc2)Oc2c(NC(=O)NC3CCCCC3)cccc2C1=O
AC50 [9]: 3.92 µM (active)

C[C@H]1CN([C@@H](C)CO)C(=O)Cc2cc(NC(=O)Nc3ccc4c(c3)OCO4)ccc2O[C@@H]1CN(C)Cc1ccc(C(=O)Nc2ccccc2N)cc1
AC50 [9]: 2.13 µM (active)

COc1ccc(S(=O)(=O)N(C)C[C@H]2Oc3ccc(NS(=O)(=O)c4ccc(C)cc4)cc3CC(=O)N([C@H](C)CO)C[C@H]2C)cc1
AC50 [9]: 3.72 µM (active)

C[C@@H]1CN([C@H](C)CO)C(=O)Cc2cc(NC(=O)Nc3ccccc3)ccc2O[C@@H]1CN(C)Cc1ccc(Oc2ccccc2)cc1
AC50 [9]: 3.76 µM (active)

COc1ccc(NC(=O)Nc2ccc3c(c2)CC(=O)N([C@@H](C)CO)C[C@H](C)[C@H](CN(C)S(=O)(=O)c2cccs2)O3)cc1
AC50 [10]: 12 µM (active)
AC50 [11]: 27.1 µM (active)
AC50 [12]: 13.2 µM (active)

COc1cccc(S(=O)(=O)N(C)C[C@H]2Oc3cc(C#CCC(C)C)ccc3S(=O)(=O)N([C@@H](C)CO)C[C@H]2C)c1
AC50 [10]: 25.1 µM (active)
AC50 [11]: 34.2 µM (active)
AC50 [12]: 10.6 µM (active)

CC(C)(C)NCC(O)CON=C1c2ccccc2-c2ccccc21 (stereo not given)
AC50 [8]: 20.1 µM (active)

Nc1ccc(Cl)cc1N
AC50 (Cytochrome P450 3A4): 7.94 µM (inconclusive)

CCCCS(=N)(=O)CCC(N)C(=O)O (stereo not given) [BUTHIONINE SULFOXIMINE]
AC50 (Cytochrome P450 3A4): 20 µM (inconclusive)

CC(=O)OC1CCC23CC1(C)CCC2C(C)(C)CC3OC(C)=O (stereo not given) [CLOVANEDIOL DIACETATE]
AC50 (Cytochrome P450 3A4): 15.8 µM (inconclusive)

CCCCC/C=C\C/C=C\CCCCCCCC(=O)O [LINOLEIC ACID]
AC50 (Cytochrome P450 3A4): 31.6 µM (inconclusive)

Clc1cccc(C(Cl)(Cl)Cl)n1 [NITRAPYRIN]
AC50 (Cytochrome P450 3A4): 12.6 µM (inconclusive)
